Our source for the IC50 values is patent US7511063B2, “High affinity quinoline-based kinase ligands” (Schering Corporation, priority 2006, dated 2009).

The target in the test is CDK-2 (Homo sapiens, UniProt P24941). As to the kind of experiment: Fluorescence polarization displacement assay (inhibitory effectiveness toward CDK-2). It counts as binding. As to the method:
Fluorescence Polarization Assay
Binding assays were performed in a 384 well Costar NBS coated plate. […] The concentration of BMS-Alexa Fluor647 was 50 nM. Serial dilutions of compounds were added to 12 wells. The final buffer concentration was 10 mM Hepes, pH 7.5, 150 mM NaCl, and 1 mM DTT. Samples were incubated at room temperature for 15 minutes and then read in an Analyst HT instrument using an excitation and emission wavelength of 580 and 680 nm, respectively.
(Fluorescence polarisation rises when a labelled molecule tumbles more slowly, as on binding a larger partner.)

The mark [1] stands for this setting: inhibitory effectiveness toward CDK-2, read-out: IC50.

Where two headings read alike, the source gives them in different places.

Broadly, the IC50 is the concentration that gives 50% inhibition. Turning to `COC[C@H](Cc1ccc(O)cc1)NCc1cc(C(=O)OCC(O)CO)c2cc(-c3cccc(C(F)(F)F)c3)ccc2n1` (stereo partly drawn) [Compound 174], the IC50 under setting [1] is more than 40 µM.

For the compound `COC[C@H](Cc1ccc(O)cc1)NC(=O)c1cc(C(=O)O)c2cc(-c3cccc(CN4CC[C@@H](O)C4)c3)ccc2n1` [Compound 192], the IC50 under setting [1] is more than 40 µM. Compound `COC(=O)[C@H](Cc1cccc(O)c1)NC(=O)c1cc(C(=O)O)c2cc(-c3cccc(C(F)(F)F)c3)ccc2n1` [Compound 163] came in with an IC50 (IC50) of more than 40 µM. Turning to `CCCCC/C=C/c1ccc2nc(C(=O)N[C@H](COC)Cc3ccc(O)cc3)cc(C(=O)O)c2c1` [Compound 21], under setting [1], the IC50 was less than 1 µM. On the same count and under the same terms, for `COC[C@H](Cc1ccc(O)cc1)NC(=O)c1cc(C(=O)O)c2cc(CCCCO)ccc2n1` [Compound 189] the value was more than 40 µM. `COC(=O)[C@H](Cc1ccc(O)cc1)NC(=O)c1cc(C(=O)O)c2cc(CCc3ccc(Cl)cc3)ccc2n1` [Compound 9] showed a half-maximal inhibitory concentration (IC50) (IC50) of less than 1 µM. With `COC(=O)[C@H](Cc1ccccc1)NC(=O)c1cc(C(=O)O)c2cc(-c3cccs3)ccc2n1` [Compound 155], the IC50 under setting [1] was more than 40 µM. Turning to `COC(=O)[C@H](Cc1ccc(O)cc1)NC(=O)c1cc(C(=O)O)c2cc(/C=C/c3ccc(Cl)cc3)ccc2n1` [Compound 7], the half-inhibitory concentration (IC50) under setting [1] was less than 1 µM. On to `COC(=O)[C@@H](NC(=O)c1cc(C(=O)O)c2cc(-c3cccc(C(F)(F)F)c3)ccc2n1)c1ccc(O)cc1` [Compound 122], for which, under setting [1], the 50% inhibitory concentration (IC50) fell in the range of 1 to 40 µM. In the case of `COC[C@H](Cc1ccc(O)cc1)NCc1cc(C(=O)OC[C@@H](N)C(C)C)c2cc(-c3cccc(C(F)(F)F)c3)ccc2n1` [Compound 176], the half-inhibitory concentration (IC50) under setting [1] was more than 40 µM.

As for `O=C(N[C@@H](Cc1ccc(O)cc1)c1nnn[nH]1)c1cc(C(=O)O)c2cc(-c3cccc(C(F)(F)F)c3)ccc2n1` [Compound 170], the 50% inhibitory concentration (IC50) under setting [1] is more than 40 µM. As for `COC(=O)[C@H](Cc1ccc(O)cc1)NC(=O)c1cc(C(=O)O)c2cc(-c3ccccc3)ccc2n1` [Compound 73], the IC50 (IC50) was less than 1 µM. Take `COC[C@H](Cc1ccc(O)cc1)NCc1cc(C(=O)OCCO)c2cc(-c3cccc(C(F)(F)F)c3)ccc2n1` [Compound 173]: under setting [1], the concentration for half-maximal inhibition (IC50) was more than 40 µM. Take `COC[C@H](Cc1ccc(O)cc1)NC(=O)c1cc(C(=O)O)c2cc(-c3cccc(C(F)(F)F)c3)ccc2n1` [Compound 13]: the half-inhibitory concentration (IC50) under setting [1] is less than 1 µM. Still for that read-out and setting: with `CCCCCCCc1ccc2nc(C(=O)N[C@H](COC)Cc3ccc(O)cc3)cc(C(=O)O)c2c1` [Compound 20] the figure was less than 1 µM. For the setting “IC50”, `COC(=O)[C@H](Cc1ccc(OC)cc1)NC(=O)c1cc(C(=O)O)c2cc(-c3cccc(C(F)(F)F)c3)ccc2n1` [Compound 162] gave an IC50 of more than 40 µM. The same measure, in the same setting: for `CCCCCCc1ccc2nc(C(=O)N[C@@H](Cc3ccc(O)cc3)C(=O)OC)cc(C(=O)O)c2c1` [Compound 4] the value was less than 1 µM. The compound `COC(=O)[C@H](Cc1ccc(F)cc1)NC(=O)c1cc(C(=O)O)c2cc(-c3cccc(C(F)(F)F)c3)ccc2n1` [Compound 109] showed an IC50 (IC50) of 1 to 40 µM. With `CO/N=C\[C@H](Cc1ccc(O)cc1)NC(=O)c1cc(C(=O)O)c2cc(-c3cccc(C(F)(F)F)c3)ccc2n1` [Compound 59], the IC50 under setting [1] was less than 1 µM. Same read-out and setting: for `Cc1cnc([C@H](Cc2ccc(O)cc2)NCc2cc(C(=O)O)c3cc(-c4cccc(C(F)(F)F)c4)ccc3n2)o1` [Compound 45] the value was less than 1 µM; for `COC[C@H](Cc1ccc(O)cc1)NCc1cc(C(=O)OCCN(C)C)c2cc(-c3cccc(C(F)(F)F)c3)ccc2n1` [Compound 175], more than 40 µM; for `COC(=O)[C@H](Cc1ccc(O)cc1)NC(=O)c1cc(C(=O)O)c2cc(-c3ccsc3)ccc2n1` [Compound 90], 1 to 40 µM. Still for that read-out and setting: with `CC(C)(C)S(=O)(=O)NCc1cc(C(=O)N[C@H](CN)Cc2ccc(O)cc2)nc2ccc(C#Cc3ccccn3)cc12` [Compound 225] the figure was more than 40 µM. The same measure, in the same setting: for `CCCCCC#Cc1ccc2nc(C(=O)N[C@H](COC)Cc3ccc(O)cc3)cc(C(=O)O)c2c1` [Compound 19] the value was less than 1 µM; for `COC[C@H](Cc1ccc(O)cc1)NC(=O)c1cc(C(=O)O)c2cc(OCc3ccc(C(F)(F)F)cc3)ccc2n1` [Compound 55], less than 1 µM. Take `COC[C@H](Cc1ccc(O)cc1)NC(=O)c1cc(C(=O)O)c2cc(C#CCCO)ccc2n1` [Compound 186]: the IC50 under setting [1] is more than 40 µM. Take `COC[C@H](Cc1ccc(O)cc1)NC(=O)c1cc(C(=O)O)c2cc(/C=C/c3ccc(Cl)cc3)ccc2n1` [Compound 16]: the IC50 (IC50) is less than 1 µM. In the case of `COC(=O)[C@H](Cc1ccc(O)cc1)NC(=O)c1cc(C(=O)O)c2cc(-c3ccc(OC(F)(F)F)cc3)ccc2n1` [Compound 3], the IC50 under setting [1] was less than 1 µM. On the same count and under the same terms, for `COC[C@H](Cc1ccc(O)cc1)NC(=O)c1cc(C(=O)O)c2cc(COc3ccc(Cl)cc3)ccc2n1` [Compound 199] the value was more than 40 µM. Still for that read-out and setting: for `COC[C@H](Cc1ccc(O)cc1)NC(=O)c1cc(C(=O)O)c2cc(C#CCCn3cccn3)ccc2n1` [Compound 224] the value was more than 40 µM.

Consider `COC(=O)[C@H](Cc1ccc(O)cc1)NC(=O)c1cc(C(=O)O)c2cc(-c3cc(Cl)cc(Cl)c3)ccc2n1` [Compound 39], for which the IC50 under setting [1] was less than 1 µM. Turning to `COC(=O)[C@H](Cc1ccc(O)cc1)NC(=O)c1cc(C(=O)O)c2cc(-c3cccc(O)c3)ccc2n1` [Compound 120], the IC50 under setting [1] is 1 to 40 µM. For the setting “IC50”, `COC(=O)[C@@H](Cc1ccc(O)cc1)NC(=O)c1cc(C(=O)O)c2cc(-c3cccc(C(F)(F)F)c3)ccc2n1` [Compound 169] came in with a 50% inhibitory concentration (IC50) of more than 40 µM.
